Source: patent US10583109B2, “Use of silver(I) complexes as anticancer agents” (University of Johannesburg, priority 2012, dated 2020)

System: SNO-oesophageal cancer cells
Test: Flow cytometric analysis (Annexin-V FITC / PI) of apoptosis and/or necrosis in SNO-oesophageal cancer cells
Format: cell-based
Conditions: 10 μM
Description: To determine if either apoptosis or necrosis occurred, the cells were double labelled with Annexin-V FITC and Propidium Iodide (PI) by means of an Annexin-V FITC assay kit (Serotec, UK). This was done according to manufacturer's instructions with a few adjustments. Briefly, the cells (±3×10^5 cells/ml) were washed twice with cold phosphate buffered saline (PBS), followed by the addition of 100 μl 1× binding buffer. Two and a half microliters of Annexin-V along with 5 μl PI were added in the dark and was incubated for 15 minutes at room temperature. After incubation, 400 μl 1× binding buffer was added and cells were analysed using the FACSAria flow cytometer (BD Biosciences, San Jose, Calif.) with FACSDiva software (BD Biosciences, San Jose, Calif.) 492 nm (excitation) and 520 nm for Annexin and 488 nm and 575 nm(emission) for PI.
The cell membrane contains a negatively charged phosphatidylserine (PS) on the inner leaflet and is exposed when apoptosis or necrosis takes place. Annexin-V interacts with PS in both apoptotic and necrotic cells, making these cellular deaths undistinguishable. This is overcome by using PI as an alternative label that interacts with the exposed DNA of necrotic cells only, leading to the fluorescent detection of both these labels. Pie charts (FIG. 9) were constructed for all the controls (including Ligand-1 to Ligand-5) and the different silver(I) thiocyanate phosphine complexes (1)-(5).
Pie charts representing the four different flow cytometric quadrants of Annexin-V and […] to determine the mode of cellular death induced in differentially treated SNO-oesophageal cells are represented in FIG. 9. An untreated control (A), apoptotic control (B) and necrotic control (C) were included. Cells were treated with 10 μM of the different ligands including the silver(I) thiocyanate phosphine complexes (1)-(5). An average percentage was calculated for all segments where the SEM is n=3 for all treatments except for 15% H2O2 (n=2). The four segments represent the following: White segment—negative for FITC and PI, Light grey segment—positive for FITC but negative for PI, Dark grey segment—positive for PI but negative for FITC and Black segment—positive for both FITC and PI. Cells undergoing early apoptosis are represented by the light grey segment, while those of late apoptosis and primary necrosis are represented by the black segment. Necrotic cells are represented by the dark grey segment and intact viable cells are shown by the white segment.
Approximately 3×10^5 cells were washed with ice cold phosphate buffered saline solution (PBS). The cells were double labeled using an Annexin-V FITC assay kit adjusting the protocol. A 1× binding buffer (100 μl) was used to fix the cells. Annexin-V (2.5 μl) and Propidium Iodide (PI—5 μl) labels were added respectively followed by a 15 minute incubation, at room temperature, in the dark. After the incubation period, 400 μl of the 1× binding buffer was added, where counting of the cellular events was made using an FACSAria flow cytometer (BD Biosciences, San Jose, Calif.) with FACSDiva software (BD Biosciences, San Jose, Calif.). This technique in particular identifies whether predicted apoptotic cell death (or necrosis) was induced by these complexes.
As observed in FIG. 14, dot blots represent the mode of cellular death induced in the SNO-oesophageal cancer cells after 24 hours of treatment. FIG. 14(a): 0.1% DMSO, FIG. 14(b): 100 μM CDDP, FIG. 14(c): 25% H2O2, FIG. 14(d-i): complexes (6)-(9). An average percentage was calculated for all quadrants where the SEM is n=2 for all treatments. The four quadrants represent the following: Quadrant Q3 is negative for FITC and PI, Quadrant Q4 is positive for FITC but negative for PI, Quadrant Q1 is positive for PI but negative for FITC and Quadrant Q2 is positive for both FITC and PI. Cells undergoing early apoptosis are more likely to be found in Quadrant Q4 while those of late apoptosis and primary necrosis will be found in Quadrant Q2. […]

Compound: [AgSCN{P(4-FC6H4)3}2]2 [complex (3)]
- cancer cells in which apoptosis was induced (flow cytometry) (24 hour treatment): more than half
- viable cells (flow cytometry) (24 hour treatment): approximately 28%

Compound: C1#[N+][Ag]([P+](c2ccccc2)(c2ccccc2)c2ccccc2)([P+](c2ccccc2)(c2ccccc2)c2ccccc2)[S]C#[N+][Ag]([P+](c2ccccc2)(c2ccccc2)c2ccccc2)([P+](c2ccccc2)(c2ccccc2)c2ccccc2)[S]1 [complex (1), [AgSCN(PPh3)2]2]
- viable cells (flow cytometry) (24 hour treatment): ~57.47%

Compound: c1ccc([P+](c2ccccc2)(c2ccccc2)[Ag+]([P+](c2ccccc2)(c2ccccc2)c2ccccc2)([P+](c2ccccc2)(c2ccccc2)c2ccccc2)[P+](c2ccccc2)(c2ccccc2)c2ccccc2)cc1 [complex (9), AgNO3(PPh3)4]
- apoptotic cell death (flow cytometry, Q4 and Q2) (24 hours of treatment): 15.3%
